13 molecules from ChEMBL document CHEMBL1154369, “Betulin-derived compounds as inhibitors of alphavirus replication” (J Nat Prod, 2009) can be followed below.

Data set [1] is described as follows: Cytotoxicity against human HuH7 cells assessed as cell viability at 50 uM after 24 hrs.
The next data set has as its system Semliki Forest virus. Put plainly: Antiviral activity against SFV infected in BHK cells assessed as surviving virus fraction at 50 uM after 14 hrs by luciferase reporter gene assay. More on the design: scale not given here. Type of data set: functional. (In general: In a reporter assay the amount or activity of a reporter protein is the signal.)

Usually viability stands for a read-out of living cells in per cent, often relative to untreated cells. `CC(C)[C@@]12CC[C@]3(COC(=O)C4CCCCC4)CC[C@]4(C)C(=C31)[C@H](C[C@@H]1[C@@]3(C)CC[C@H](OC(=O)C5CCCCC5)C(C)(C)[C@@H]3CC[C@]14C)n1c(=O)n(C(C)(C)C)c(=O)n12`: the viability at 24 h, 50 µM in data set [1] stood at 83%. Besides, in the data set with Semliki Forest virus, the Activity was 40%.

With `C=C(C)[C@@H]1CC[C@]2(C(=O)OC)CC[C@]3(C)[C@H](CC[C@@H]4[C@@]5(C)CC[C@H](O)C(C)(C)[C@@H]5CC[C@]43C)[C@@H]12` [METHYL BETULINATE], the viability at 24 h, 50 µM in data set [1] came to 1%. Besides, the Activity in the data set on Semliki Forest virus was found to be 68%.

Take `COc1cccc(-n2c(=O)n3n(c2=O)[C@]2(C(C)C)CC[C@]4(COC(C)=O)CC[C@]5(C)C(=C42)[C@@H]3C[C@@H]2[C@@]3(C)CC[C@H](OC(C)=O)C(C)(C)[C@@H]3CC[C@]25C)c1`: in data set [1], the viability at 24 h, 50 µM is 93%. For the same molecule, in the data set with Semliki Forest virus, the Activity came out at 121%.

As for `C=C(C)[C@@H]1CC[C@]2(C=O)CC[C@]3(C)[C@H](CC[C@@H]4[C@@]5(C)CC[C@H](O)C(C)(C)[C@@H]5CC[C@]43C)[C@@H]12` [BETULINALDEHYDE], the viability at 24 h, 50 µM in data set [1] turned out to be 0%. The Activity in the data set on Semliki Forest virus was 1%.

Turning to `CC(C)[C@@]12CC[C@]3(CO)CC[C@]4(C)C(=C31)[C@H](C[C@@H]1[C@@]3(C)CC[C@H](O)C(C)(C)[C@@H]3CC[C@]14C)n1c(=O)n(-c3ccccc3)c(=O)n12`, the viability at 24 h, 50 µM in data set [1] is 85%. Moreover, in the data set on Semliki Forest virus, the Activity turned out to be 73%.

With `C=C(C)[C@@H]1CC[C@]2(C(=O)Oc3ccc(C=O)cc3OC)CC[C@]3(C)[C@H](CC[C@@H]4[C@@]5(C)CCC(=O)C(C)(C)C5CC[C@]43C)[C@@H]12` (stereo partly specified) [VANILLINYL BETULONATE], in data set [1], the viability at 24 h, 50 µM was 89%. For the same molecule, the Activity in the data set with Semliki Forest virus is 43%.

Turning to `C=C(C)[C@@H]1CC[C@]2(COC(=O)/C=C/c3ccccc3)CC[C@]3(C)[C@H](CC[C@@H]4[C@@]5(C)CC[C@H](O)C(C)(C)[C@@H]5CC[C@]43C)[C@@H]12`, the viability at 24 h, 50 µM in data set [1] turned out to be 96%. Moreover, the Activity with Semliki Forest virus was determined as 111%.

As to `CC(C)[C@@]12CC[C@]3(COC(=O)c4ccccc4)CC[C@]4(C)C(=C31)[C@H](C[C@@H]1[C@@]3(C)CC[C@H](OC(=O)c5ccccc5)C(C)(C)[C@@H]3CC[C@]14C)n1c(=O)n(-c3ccccc3)c(=O)n12`, the viability at 24 h, 50 µM in data set [1] worked out at 88%. Further, the Activity with Semliki Forest virus is listed as 50%.

`C=C(C)[C@@H]1CC[C@]2(C(=O)N[C@@H](CC(=O)OC)C(=O)OC)CC[C@]3(C)[C@H](CC[C@@H]4[C@@]5(C)CCC(=O)C(C)(C)[C@@H]5CC[C@]43C)[C@@H]12`: the viability at 24 h, 50 µM in data set [1] was found to be 30%. Besides, the Activity with Semliki Forest virus was found to be 40%.

For `C=C(C)[C@@H]1CC[C@]2(COC(=O)CCC(C)=O)CC[C@]3(C)[C@H](CC[C@@H]4[C@@]5(C)CC[C@H](OC(=O)CCC(C)=O)C(C)(C)[C@@H]5CC[C@]43C)[C@@H]12`, the viability at 24 h, 50 µM in data set [1] worked out at 109%. Moreover, in the data set on Semliki Forest virus, the Activity came out at 74%.

Take `C=C(C)[C@@H]1CC[C@]2(C#N)CC[C@]3(C)[C@H](CC[C@@H]4[C@@]5(C)CC/C(=N\OC(C)=O)C(C)(C)[C@@H]5CC[C@]43C)[C@@H]12`: in data set [1], the viability at 24 h, 50 µM came out at 85%. For the same molecule, the Activity in the data set on Semliki Forest virus stood at 73%.

Consider `CC(C)[C@@]12CC[C@]3(COC(=O)c4ccccc4)CC[C@]4(C)C(=C31)[C@H](C[C@@H]1[C@@]3(C)CC[C@H](OC(=O)c5ccccc5)C(C)(C)[C@@H]3CC[C@]14C)n1c(=O)n(C)c(=O)n12`, for which the viability at 24 h, 50 µM in data set [1] amounted to 108%. Besides, the Activity in the data set with Semliki Forest virus is given as 22%.

`C=C(C)[C@@H]1CC[C@]2(COC(=O)C3C(C=C(C)C)C3(C)C)CC[C@]3(C)[C@H](CC[C@@H]4[C@@]5(C)CC[C@H](O)C(C)(C)[C@@H]5CC[C@]43C)[C@@H]12` (stereo partly specified): the viability at 24 h, 50 µM in data set [1] turned out to be 90%. Further, the Activity in the data set with Semliki Forest virus was 95%.
